From article PMC6792352, “Limited Chemical Structural Diversity Found to Modulate Thyroid Hormone Receptor in the Tox21 Chemical Library” (Environmental Health Perspectives, 2019) come the findings set out here.

Counter-ions that a name gives are not always drawn. Positions of bridges follow the written chain, without caps; N, C: chain ends. Residues, ends and D or L forms follow the SMILES beside them. Where only a bound is given, the exact number is not on record here.

As usually defined, the CC50 is the concentration that lowers cell viability or growth by half.

The nature of the first series: in vitro. The following applies: rat, gh3-tre-luc cells, AC50 (uM) modified / 1000.
In turn, `CCCCc1nc2cccnc2n1Cc1ccc(-c2ccccc2-c2nnn[nH]2)cc1` [FR130739] yielded a CC50 at 24 h of 55.3 µM.
The same measure, in the same setting: with `Cc1ccc2oc(CN(Cc3ccccc3)C(=O)Nc3c(F)cc(F)cc3F)c(-c3ccc(Cl)cc3)c2c1` [FR145237] the figure was above 80 µM.
For the molecule `CC(C)(C)c1csc(-c2cc3cc(OCc4ccccc4CC(=O)O)ccc3o2)n1` [FR150011], half-maximal cytotoxicity (CC50 at 24 h) was put at 79.7 µM.
Same read-out and setting: the result for `Cc1oc2c(NC(=O)c3c(Cl)cccc3Cl)cccc2c1C(C)(C)O` [FR167356] reads 19.6 µM; that for `CC/C(=C\C(=N/O)C(N)=O)C(C)[N+](=O)[O-]` (stereo not drawn) [FR900409], above 90 µM; that for `N#Cc1ccc(C2CCCc3cncn32)cc1` (stereo not drawn) [Fadrozole hydrochloride], above 40 µM.
In the case of `CN1CCC(Nc2ncc3ncnc(Nc4ccc(F)c(Cl)c4)c3n2)CC1` [Falnidamol dihydrochloride], the CC50 at 24 h was found to be 11.7 µM.
On the same count and under the same terms, the result for `CC(=O)OCC(CCn1cnc2cnc(N)nc21)COC(C)=O` [Famciclovir] reads above 50 µM; that for `NC(N)=Nc1nc(CSCCC(N)=NS(N)(=O)=O)cs1` [Famotidine], above 90 µM; that for `CC(C)c1c(CN(C)C(C)Cc2ccccc2)n(C)n(-c2ccccc2)c1=O` (stereo not drawn) [Famprofazone], above 20 µM.
The same measure, in the same setting: with `O=S1(=O)c2cccc3cccc(c23)N1CCCN1CCN(c2ccc(F)cc2)CC1` [Fananserin] the figure was above 50 µM; with `O=c1[nH]c2cc(C(F)(F)F)c(N3CCOCC3)cc2n(CP(=O)(O)O)c1=O` [Fanapanel], above 50 µM; with `CCc1cc(C2=C(C(=O)O)N(c3ccccc3C(F)(F)F)S(=O)(=O)c3ccccc32)cc2c1OCO2` [Fandosentan potassium salt], 8.29 µM.
On the same count and under the same terms, with `c1ccc(CCNc2nc(-c3ccccc3)cs2)cc1` [Fanetizole] the figure was above 50 µM; with `Cc1oc(-c2ccccc2)nc1CCOc1ccc(C[C@H](Nc2ccccc2C(=O)c2ccccc2)C(=O)O)cc1` [Farglitazar], 25 µM; with `CC(C)=CCC/C(C)=C/CC/C(C)=C/CO` [Farnesol], 68.1 µM.
`O=C1CC[C@H](C(=O)N2CCCCC2)N1` [Fasoracetam]: the CC50 at 24 h was above 50 µM.
The same measure, in the same setting: with `O=S(=O)(c1cccc2cnccc12)N1CCCNCC1` [Fasudil hydrochloride] the figure was above 50 µM; with `Cc1nc(-c2ccc(OCC(C)C)c(C#N)c2)sc1C(=O)O` [Febuxostat], above 50 µM.
Molecule `NC(=O)OCC(COC(N)=O)c1ccccc1` [Felbamate] registered a CC50 at 24 h above 90 µM.
On the same count and under the same terms, the result for `O=C(O)Cc1ccc(-c2ccccc2)cc1` [Felbinac] reads above 20 µM; that for `CCOC(=O)C1=C(C)NC(C)=C(C(=O)OC)C1c1cccc(Cl)c1Cl` (stereo not drawn) [Felodipine], 13.5 µM; that for `NCCCC[C@H](NC(=O)[C@@H]1CCCN1C(=O)[C@@H]1CSSC[C@H](N)C(=O)N[C@@H](Cc2ccccc2)C(=O)N[C@@H](Cc2ccccc2)C(=O)N[C@@H](CCC(N)=O)C(=O)N[C@@H](CC(N)=O)C(=O)N1)C(=O)NCC(N)=O` [Felypressin] (H-CFFQNCPKG-NH2; disulfide 1-6), above 50 µM.
`CSC1=N[C@@](C)(c2ccccc2)C(=O)N1Nc1ccccc1` [Fenamidone] registered a CC50 at 24 h above 90 µM.
The same measure, in the same setting: with `CN(C)c1ccc(N=NS(=O)(=O)O)cc1` [Fenaminosulf] the figure was above 90 µM; with `Nc1nnnn1-c1ccccc1` [Fenamol], above 50 µM.
Still for that read-out and setting: with `CC(C)(C)c1ccc(CCOc2ncnc3ccccc23)cc1` [Fenazaquin] the figure was above 90 µM; with `N#CC(CCc1ccc(Cl)cc1)(Cn1cncn1)c1ccccc1` (stereo not drawn) [Fenbuconazole], 49.1 µM.
`O=C(O)CCC(=O)c1ccc(-c2ccccc2)cc1` [Fenbufen] displayed a CC50 at 24 h above 20 µM.
The same measure, in the same setting: the result for `CCOC(=O)c1nc(C(Cl)(Cl)Cl)n(-c2ccc(Cl)cc2Cl)n1` [Fenchlorazole-ethyl] reads 52.1 µM; that for `CC(=O)OC1C2(C)CCC(C2)C1(C)C` (stereo not drawn) [Fenchyl acetate], above 90 µM; that for `O=C(O)Cc1ccccc1Oc1ccc(Cl)cc1Cl` [Fenclofenac], above 50 µM.
On the same count and under the same terms, with `NC(Cc1ccc(Cl)cc1)C(=O)O` (stereo not drawn) [Fenclonine] the figure was above 50 µM; with `O=C(O)Cc1csc(-c2ccc(Cl)cc2)n1` [Fenclozic acid], above 50 µM.
Same read-out and setting: with `CC(NCCC(c1ccccc1)c1ccccc1)c1ccccc1` (stereo not drawn) [Fendiline hydrochloride] the figure was 6.49 µM; with `CC1(C(=O)Nc2ccc(O)c(Cl)c2Cl)CCCCC1` [Fenhexamid], 76.7 µM.
For `CCCCC(O)c1ccccc1` (stereo not drawn) [Fenipentol], the CC50 at 24 h was above 50 µM.
The molecule `COP(=S)(OC)Oc1ccc([N+](=O)[O-])c(C)c1` [Fenitrothion] gave a CC50 at 24 h above 90 µM.
Still for that read-out and setting: the result for `CN1CC(=O)N=C1NC(=O)Nc1cccc(Cl)c1` [Fenobam] reads above 50 µM; that for `CC(C)OC(=O)C(C)(C)Oc1ccc(C(=O)c2ccc(Cl)cc2)cc1` [Fenofibrate], 78.6 µM; that for `Oc1ccc(C2CNCCc3c2cc(O)c(O)c3Cl)cc1` (stereo not drawn) [Fenoldopam], above 50 µM.
Still for that read-out and setting: with `CC(C(=O)O)c1cccc(Oc2ccccc2)c1` (stereo not drawn) [Fenoprofen calcium salt dihydrate] the figure was above 20 µM; with `CC(Cc1ccc(O)cc1)NCC(O)c1cc(O)cc(O)c1` (stereo not drawn) [Fenoterol hydrobromide], above 50 µM.
Regarding `O=C(CN1CCN(Cc2ccc3c(c2)OCO3)CC1)N1c2ccccc2Sc2ccccc21` [Fenoverine], it took 23.4 µM to reach half-maximal cytotoxicity (CC50 at 24 h).
Same read-out and setting: with `CCOC(=O)[C@@H](C)Oc1ccc(Oc2nc3ccc(Cl)cc3o2)cc1` [Fenoxaprop-P-ethyl] the figure was above 90 µM; with `CCOC(=O)C(C)Oc1ccc(Oc2nc3ccc(Cl)cc3o2)cc1` (stereo not drawn) [Fenoxaprop-ethyl], above 90 µM; with `CCOC(=O)NCCOc1ccc(Oc2ccccc2)cc1` [Fenoxycarb], above 90 µM.
Still for that read-out and setting: with `C[N+]1(CCC(C(N)=O)(c2ccccc2)c2ccccc2)CCCCC1` [Fenpiverinium bromide] the figure was above 50 µM.
The same measure, in the same setting: with `Cc1nn(C)c(Oc2ccccc2)c1C=NOCc1ccc(C(=O)OC(C)(C)C)cc1` [Fenpyroximate (Z,E)] the figure was 59.7 µM; with `O=S(=O)(Oc1ccc(Cl)cc1)c1ccccc1` [Fenson], above 90 µM; with `O=C1NCC2(CCN(CCc3ccccc3)CC2)O1` [Fenspiride hydrochloride], above 50 µM.
Molecule `COP(=S)(OC)Oc1ccc(SC)c(C)c1` [Fenthion] yielded a CC50 at 24 h above 90 µM.
On the same count and under the same terms, the result for `O=C(O)Cc1sc(-c2ccccc2)nc1-c1ccc(Cl)cc1` [Fentiazac] reads above 50 µM.

Staying with this series, now noted: rat, gh3-tre-luc cells, AC50 (uM) modified / 1000, Tox21_110001=Tox21_111697; viability, 1 nM T3 present, 24 h.
Regarding `CCNC(C)Cc1cccc(C(F)(F)F)c1` (stereo not drawn) [Fenfluramine], the CC50 at 24 h is above 50 µM.

Staying with this series, now noted: rat, gh3-tre-luc cells, AC50 (uM) modified / 1000, Tox21_110001=Tox21_111946; viability, 1 nM T3 present, 24 h.
In turn, `COP(=S)(OC)Oc1ccc(S(=O)(=O)N(C)C)cc1` [Famphur] displayed a CC50 at 24 h above 50 µM.

Still in this series, the particulars now being: rat, gh3-tre-luc cells, AC50 (uM) modified / 1000, Tox21_110001=Tox21_112896; viability, 1 nM T3 present, 24 h.
`CC(Cc1ccccc1)NCCn1cnc2c1c(=O)n(C)c(=O)n2C` (stereo not drawn) [Fenethylline hydrochloride] showed a CC50 at 24 h above 90 µM.

The same series, now with this note: rat, gh3-tre-luc cells, AC50 (uM) modified / 1000, Tox21_110001=Tox21_113416; viability, 1 nM T3 present, 24 h.
As for `COP(=S)(OC)Oc1cc(Cl)c(Cl)cc1Cl` [Fenchlorphos], the CC50 at 24 h is above 50 µM.

The same series, now with this note: rat, gh3-tre-luc cells, AC50 (uM) modified / 1000, Tox21_110001=Tox21_301334; viability, 1 nM T3 present, 24 h.
Molecule `COP(=S)(OC)Oc1cc(Cl)c(Cl)cc1Cl` [Fenchlorphos] registered a CC50 at 24 h above 90 µM.

Staying with this series, now noted: rat, gh3-tre-luc cells, AC50 (uM) modified / 1000, Tox21_110001=Tox21_301907; viability, 1 nM T3 present, 24 h.
Take `COP(=S)(OC)Oc1ccc(S(=O)(=O)N(C)C)cc1` [Famphur]: the CC50 at 24 h is above 90 µM.

The series is the same for the next values; noted with them: rat, gh3-tre-luc cells, AC50 (uM) modified / 1000, Tox21_110001=Tox21_400081; viability, 1 nM T3 present, 24 h.
With `CCOP(=O)(O)N(c1ccc(SC)c(C)c1)C(C)C` [Fenamiphos], the CC50 at 24 h was above 90 µM.
